Source: the supplement of paper PMC10307832

Tests used:
Test in all cases: relative viability (nuclei count vs DMSO), 5 days (fraction); higher = more cells survive
[1] = compound: Cc1ccc(F)c(NC(=O)Nc2ccc(-c3cccc4[nH]nc(N)c34)cc2)c1 [Linifanib] + C[C@]1(O)C[C@@H](c2nc(-c3ccc4ccc(-c5ccccc5)nc4c3)c3c(N)nccn32)C1 [Linsitinib] (partner 1 µM)
In short: (§1)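 Five library-drug doses in √10 steps were combined with a fixed anchor-drug dose, or a single drug was given alone, by pin tool to lung cancer cell lines in 1536-well plates the day after seeding. Nuclei were stained and counted after 5 days. Relative viability is the nuclei count in treated wells over that in vehicle wells, taken as the median of duplicate plates.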

[2] = compound: Cc1ccc(F)c(NC(=O)Nc2ccc(-c3cccc4[nH]nc(N)c34)cc2)c1 [Linifanib] + CC(=O)c1c(C)c2cnc(Nc3ccc(N4CCNCC4)cn3)nc2n(C2CCCC2)c1=O [Palbociclib] (partner 0.5 µM)
In short: as §1

[3] = compound: Cc1ccc(F)c(NC(=O)Nc2ccc(-c3cccc4[nH]nc(N)c34)cc2)c1 [Linifanib] + CC1(C)CCC(c2ccc(Cl)cc2)=C(CN2CCN(c3ccc(C(=O)NS(=O)(=O)c4ccc(N[C@H](CCN5CCOCC5)CSc5ccccc5)c(S(=O)(=O)C(F)(F)F)c4)cc3)CC2)C1 [Navitoclax] (partner 0.5 µM)
In short: as §1

[4] = compound: Cc1ccc(F)c(NC(=O)Nc2ccc(-c3cccc4[nH]nc(N)c34)cc2)c1 [Linifanib] + COc1cc2c(Oc3ccc(NC(=O)C4(C(=O)Nc5ccc(F)cc5)CC4)cc3F)ccnc2cc1OCCCN1CCOCC1 [Foretinib] (partner 0.25 µM)
In short: as §1

[5] = compound: Cc1ccc(F)c(NC(=O)Nc2ccc(-c3cccc4[nH]nc(N)c34)cc2)c1 [Linifanib] + Nc1nc2[nH]cc(CCc3ccc(C(=O)N[C@@H](CCC(=O)O)C(=O)O)cc3)c2c(=O)[nH]1 [Pemetrexed] (partner 0.2 µM)
In short: as §1

[6] = compound: Cc1ccc(F)c(NC(=O)Nc2ccc(-c3cccc4[nH]nc(N)c34)cc2)c1 [Linifanib] + CS(=O)(=O)N1CCN(Cc2cc3nc(-c4cccc5[nH]ncc45)nc(N4CCOCC4)c3s2)CC1 [Pictilisib] (partner 1 µM)
In short: as §1

Cell Line | relative viability ([1]; first compound 0.03162 µM) | relative viability ([1]; first compound 0.1 µM) | relative viability ([1]; first compound 0.3162 µM) | relative viability ([2]; first compound 0.03162 µM) | relative viability ([2]; first compound 0.1 µM) | relative viability ([2]; first compound 0.3162 µM) | relative viability ([3]; first compound 0.03162 µM) | relative viability ([3]; first compound 0.1 µM) | relative viability ([3]; first compound 0.3162 µM) | relative viability ([4]; first compound 0.03162 µM) | relative viability ([4]; first compound 0.1 µM) | relative viability ([4]; first compound 0.3162 µM) | relative viability ([5]; first compound 0.03162 µM) | relative viability ([5]; first compound 0.1 µM) | relative viability ([5]; first compound 0.3162 µM) | relative viability ([6]; first compound 0.03162 µM) | relative viability ([6]; first compound 0.1 µM) | relative viability ([6]; first compound 0.3162 µM)
201T | 1.01 | 1.02 | 1.05 | 0.369 | 0.371 | 0.348 | 1.2 | 1.23 | 1.21 | 0.968 | 1.22 | 1.1 | 0.317 | 0.309 | 0.317 | 0.69 | 0.704 | 0.668
A-427 | 1.1 | 1.11 | 1.08 | 0.54 | 0.548 | 0.507 | 1.07 | 0.986 | 0.998 | 1.02 | 1.34 | 1.02 | 0.96 | 0.992 | 0.945 | 0.796 | 0.724 | 0.711
ABC-1 | 0.825 | 1.03 | 0.788 | 0.754 | 0.797 | 0.787 |  |  |  | 1.02 | 1.08 | 0.921 |  |  |  | 0.759 | 0.953 | 0.742
BEN | 0.842 | 0.896 | 0.83 | 0.471 | 0.521 | 0.438 | 0.069 | 0.203 | 0.0675 | 0.718 | 0.774 | 0.608 | 0.716 | 0.866 | 0.853 | 0.516 | 0.606 | 0.581
CAL-12T | 0.905 | 0.722 | 0.755 | 0.485 | 0.446 | 0.419 | 1.18 | 1.21 | 1.04 | 1.14 | 1.21 | 1.14 | 1.2 | 1.27 | 1.18 | 0.439 | 0.478 | 0.33
COR-L23 | 0.933 | 1.01 | 0.815 | 0.31 | 0.298 | 0.273 | 1.05 | 1.04 | 0.857 | 0.952 | 0.951 | 0.959 | 0.197 | 0.19 | 0.195 | 0.754 | 0.717 | 0.686
COR-L 105 | 0.87 | 0.978 | 0.715 | 0.424 | 0.405 | 0.401 | 0.808 | 0.938 | 0.796 | 0.968 | 1.08 | 0.919 | 1.12 | 1.02 | 1.07 | 0.422 | 0.437 | 0.388
ChaGo-K-1 |  |  |  | 0.984 | 0.881 | 0.916 | 0.991 | 1.17 | 0.978 | 1.09 | 0.935 | 0.951 | 0.255 | 0.262 | 0.238 | 0.697 | 0.783 | 0.741
EKVX | 1.11 | 1.03 | 0.868 | 0.447 | 0.383 | 0.415 | 0.973 | 1.15 | 0.868 | 0.787 | 0.886 | 0.686 | 0.388 | 0.413 | 0.399 | 0.508 | 0.512 | 0.454
